Reference: PubChem BioAssay (NCI)
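Where inhibition never reached the appropriate level, the endpoint shown equals the highest concentration tested. Otherwise, values were interpolated linearly from a five-concentration, 48-hour dose response in 96-well plates. GI50 is the concentration that inhibits growth by half. TGI marks complete inhibition of growth.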

Tests used:
Assay in all cases: inhibition of tumour cell growth, NCI panel, 48 h
CCRF-CEM leukemia = tested on: CCRF-CEM leukemia
DU-145 prostate = tested on: DU-145 prostate
HOP-92 NSCLC = tested on: HOP-92 NSCLC
IGROV1 ovarian = tested on: IGROV1 ovarian
M14 melanoma = tested on: M14 melanoma
MCF7 breast = tested on: MCF7 breast
NCI-H460 lung = tested on: NCI-H460 lung
OVCAR-8 ovarian = tested on: OVCAR-8 ovarian
SF-295 CNS = tested on: SF-295 CNS
SK-MEL-28 melanoma = tested on: SK-MEL-28 melanoma

SMILES	TGI (CCRF-CEM leukemia) [µM]	TGI (DU-145 prostate) [µM]	TGI (HOP-92 NSCLC) [µM]	TGI (IGROV1 ovarian) [µM]	TGI (M14 melanoma) [µM]	TGI (MCF7 breast) [µM]	TGI (NCI-H460 lung) [µM]	TGI (OVCAR-8 ovarian) [µM]	TGI (SF-295 CNS) [µM]	TGI (SK-MEL-28 melanoma) [µM]	GI50 (CCRF-CEM leukemia) [nM]	GI50 (DU-145 prostate) [nM]	GI50 (HOP-92 NSCLC) [nM]	GI50 (IGROV1 ovarian) [nM]	GI50 (MCF7 breast) [nM]	GI50 (NCI-H460 lung) [nM]	GI50 (OVCAR-8 ovarian) [nM]	GI50 (SF-295 CNS) [nM]	GI50 (SK-MEL-28 melanoma) [nM]	GI50 (M14 melanoma) [nM]
[N-]=[N+]=NC1(N=[N+]=[N-])C(=O)NN=C(c2ccccc2)C1=O (configuration not stated)	83.9	> 100	> 100	> 100	> 100	> 100	> 100	> 100	> 100	31.9										
C/C(=C\c1ccn(-c2ccc(N)c(C(F)(F)F)c2)n1)[C@@H]1C[C@@H]2O[C@]2(C)CCC[C@H](C)[C@H](O)[C@@H](C)C(=O)C(C)(C)[C@@H](O)CC(=O)O1	> 32.5	0.0969	23.9	> 32.5		> 16	6.21	> 28.1	7.23	> 32.5	11.7	11.3	16.1	77.3	3.85	8.48	17.7	15.5	3870	
Nc1ncc(-c2cnn(C3CCNCC3)c2)cc1-c1nc2ccccc2o1	0.677	8.86	2.05	0.891	2.54	2.13	2.54	8.9	3.43	3.17	235	1750	553	211	441	998	2590	1540	1740	1210
N=c1nc(N)c2cc3c(N)nc(=N)c3cc12	26.8	> 100	25.6	> 100	27.9	> 100	> 100	35	51	10.7										
COc1ccc(C(=S)c2cc(OC)c(OC)c(OC)c2)cc1OC(=O)CCl	> 100	> 100	> 100	> 100	> 49.6	43.5	12.9	> 100	> 100		< 16.7	31.1	550	49.9	< 15.6	30.1	35.5	35.6		< 12.5
O=C(O)C1C2C=CC(O2)C1C(=O)Nc1ccccc1 (configuration not stated)	> 100	> 100		> 100	> 100	> 100		> 100	> 100	> 100										
CC1=CC2=C(OCO1)C(=O)c1ccccc1C2=O	45.7	3.67	23	27.6	8.97		19.1	32.3	8.61	10.3										
CCCCCCCCN(CCCCCCCC)C(=N)c1ccnc2ccccc12	2.2	2.31	2.32		1.36	1.21		3.27	2.92	1.07	466	1080	1020		261		1580	1520	312	336
N=c1ccn2c(n1)OC1C(OP(=O)(O)O)C(CO)OC12 (configuration not stated)		> 100	> 100	> 100	> 45.8	> 100	> 39.2	> 100	> 100	> 100										
O=c1ncc(-c2ccc(C(F)(F)F)cc2)c(NC2CCCCCC2)[nH]1	48	98.1		40.2	45.8	56.4	35	40.4	34	33.9	19700	31600		19100	16200	17700	18700	17000	17000	20400
CCc1ccc(C2=C/C(=C/c3ccc(Cl)cc3)C(=O)N2CCc2ccc(S(N)(=O)=O)cc2)cc1	32.8	15.4	4.8	12.7	5.26	7.99		13.1	3.72	15.8	3440	3770	1670	3260	2220		3200	1770	4280	2080
O=C1C=C(Nc2ccccc2)c2ncccc2C1=O		1.12	2.97	2.58	1.17	0.452	1.11	1.4	2.6	3.24		341	1490	904	203	350	373	1310	1700	352
O=c1[nH]cnc2c(C3OC(CO)C(O)C3O)[nH]nc12 (configuration not stated)	> 100	38.2		> 100	> 100	> 100	> 100	70.3	> 100	> 100										
C[C@H](c1ccc(Cl)cc1N)N1C(=O)c2cc(I)ccc2N(CCCN2CCN(C)CC2)C(=O)[C@@H]1c1ccc(Cl)cc1	3.47	3.31		3.12	3.65	2.41	2.71			3.08	1630	1790		1290	1150	1320			1690	1960
CC[C@H](C)c1occ2c(O)c(C(=O)O)c(=O)cc-2c1C	53.5	> 100	49.6	37.2	> 100	> 100	60.6	41.4	99.3											
CC(C)(Cl)CCC1=C(Cl)C(=O)c2ccccc2C1=O	4.79	18.2		5.22	5.51	4.05	12.4	5.03	11	5.26	1220	6120		2350	1990	3310	2030	3220	2400	2280
